Columns and labels:
CYPSE (Flatsedge) [1] = assay: Preemergence weed control under flooded paddy conditions; assay type: in vivo, Cyperus serotinus; settings: rated 3-4 weeks after treatment
Outline: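 Values are visual 0-9 scores against a control for a preemergence application into paddy flood water at about 0.0313 to 0.500 kg/ha. Greenhouse duration was three to four weeks.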

[2] = system: ECHORC (Watergrass (Calif.)); assay: as above; assay type: in vivo, Echinochloa oryzoides; settings: rated 3-4 weeks after treatment
Outline: (§1)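 Ratings on a 0-9 visual scale cover stand, vigor, malformation, size, chlorosis and overall appearance relative to a control, taken three to four weeks post-treatment. Application was into flood water over freshly sown silt loam at roughly 0.0313 to 0.500 kg/ha.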

[3] = system: ECHORC (Watergrass (Calif.)); assay: Postemergence weed control under flooded paddy conditions; assay type: in vivo, Echinochloa oryzoides; settings: postemergence weeds, rated 3 to 4 weeks after treatment
Outline: (§2)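 Herbicidal effect is judged by eye on a 0–9 scale versus control, 3–4 weeks after dosing. Dosing is into flood water kept 1.5–3 cm over the soil, at about 0.0313–0.500 kg/ha in aqueous/acetone 50/50 v/v, on 3–5 cm weeds and 1.5–2.5-leaf rice seedlings.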

CYPSE (Flatsedge) [4] = assay: as above; assay type: in vivo, Cyperus serotinus; settings: postemergence weeds, rated 3 to 4 weeks after treatment
Outline: as §2

GALAP (Galium) = assay: Postemergence herbicidal evaluation; assay type: in vivo, Galium aparine; settings: postemergence
Outline: (§3)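 ~2-wk seedlings; postemergence spray, 40 psi; vehicle 1:1 acetone:water + 0.5% Tween 20; rate ≈0.0156–0.500 kg/ha; greenhouse hold; scored 4–5 wk after treatment, 0–9 scale vs control; repeat tests averaged.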

CYPIR (Rice Flatsedge) = assay: Preemergence weed control under flooded paddy conditions; assay type: in vivo, Cyperus iria; settings: rated 3-4 weeks after treatment
Outline: as §1

ZEAMX (Corn, Field) [5] = assay: Preemergence herbicidal evaluation; assay type: in vivo, Zea mays; settings: preemergence, rated 4-5 weeks after treatment, 0-9 scale
Outline: (§4)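 Herbicidal effect scored visually, 0-9, at 4 to 5 weeks against a control; compound applied preemergence by aqueous acetone spray to seeded soil at about 0.0156 to 0.500 kg/ha.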

[6] = system: TRZAWR (Wheat, Winter, cv Riband); assay: Preemergence herbicidal evaluation; assay type: in vivo, Triticum aestivum; settings: preemergence, rated 4-5 weeks after treatment, 0-9 scale
Outline: as §4

AMBEL (Ragweed, Common) = assay: Preemergence herbicidal evaluation; assay type: in vivo, Ambrosia artemisifolia; settings: preemergence, rated 4-5 weeks after treatment, 0-9 scale
Outline: as §4

[7] = system: IPOHE (Morningglory, Ivyleaf); assay: Preemergence herbicidal evaluation; assay type: in vivo, Ipomoea hederacea; settings: preemergence, rated 4-5 weeks after treatment, 0-9 scale
Outline: as §4

ORYSAT (Rice, Tebonnet) = assay: Preemergence herbicidal evaluation; assay type: in vivo, Oryza sativa, (L.) Tebonnet; settings: preemergence, rated 4-5 weeks after treatment, 0-9 scale
Outline: as §4

CASOB (Sicklepod) = assay: Postemergence herbicidal evaluation; assay type: in vivo, Cassia obtusifolia; settings: postemergence
Outline: as §3

[8] = system: CHEAL (Lambsquarters, Common); assay: Preemergence herbicidal evaluation; assay type: in vivo, Chenopodium album; settings: preemergence, rated 4-5 weeks after treatment, 0-9 scale
Outline: as §4

ZEAMX (Corn, Field) [9] = assay: Postemergence herbicidal evaluation; assay type: in vivo, Zea mays; settings: postemergence
Outline: as §3

C=CCN1C(=O)C(CC(N)=O)SC1=Nc1cc(-n2c(=O)cc(C(F)(F)F)n(C)c2=O)c(F)cc1Cl (stereo not shown) [Compound 99, 3-Allyl-2-{{2-chloro-5-[3,6-dihydro-3-methyl-2,6-dioxo-4-(trifluoromethyl)-1(2H)-pyrimidinyl]-4-fluorophenyl}imino}-4-oxo-5-thiazolidineacetamide] was tested. Which “CYPSE herbicidal effect rating” value (CYPSE (Flatsedge) [1]; 0.0313 kg/ha) did it give?
The value was 0.0.

What about the “CYPSE herbicidal effect rating” value (CYPSE (Flatsedge) [1]; 0.0625 kg/ha) of the same compound?
Its value is 0.0.

And the “CYPSE herbicidal effect rating” value (CYPSE (Flatsedge) [1]; 0.1250 kg/ha)?
The value was 0.0.

What about the “CYPSE herbicidal effect rating” value (CYPSE (Flatsedge) [1]; 0.2500 kg/ha) of the same compound?
Its value is 0.0.

And the “CYPSE herbicidal effect rating” value (CYPSE (Flatsedge) [1]; 0.5000 kg/ha)?
The value was 0.0.

And the “ECHORC herbicidal effect rating” value ([2]; 0.0313 kg/ha)?
Its value is 0.0.

And the “ECHORC herbicidal effect rating” value ([2]; 0.0625 kg/ha)?
The value was 0.0.

What about the “ECHORC herbicidal effect rating” value ([2]; 0.1250 kg/ha) of the same compound?
The value was 0.0.

And the “ECHORC herbicidal effect rating” value ([2]; 0.2500 kg/ha)?
Its value is 0.0.

What about the “ECHORC herbicidal effect rating” value ([2]; 0.5000 kg/ha) of the same compound?
Its value is 4.0.

And the “Herbicidal rating ECHORC” value ([3]; Rate 0.0313 kg/ha)?
The value was 0.0.

What about the “Herbicidal rating ECHORC” value ([3]; Rate 0.0625 kg/ha) of the same compound?
Its value is 0.0.

What about the “Herbicidal rating ECHORC” value ([3]; Rate 0.1250 kg/ha) of the same compound?
Its value is 0.0.

And the “Herbicidal rating ECHORC” value ([3]; Rate 0.2500 kg/ha)?
The value was 0.0.

And the “Herbicidal rating ECHORC” value ([3]; Rate 0.5000 kg/ha)?
Its value is 4.0.

What about the “Herbicidal rating CYPSE” value (CYPSE (Flatsedge) [4]; Rate 0.0313 kg/ha) of the same compound?
The value was 0.0.

What about the “Herbicidal rating CYPSE” value (CYPSE (Flatsedge) [4]; Rate 0.0625 kg/ha) of the same compound?
Its value is 0.0.

What about the “Herbicidal rating CYPSE” value (CYPSE (Flatsedge) [4]; Rate 0.1250 kg/ha) of the same compound?
Its value is 0.0.

And the “Herbicidal rating CYPSE” value (CYPSE (Flatsedge) [4]; Rate 0.2500 kg/ha)?
The value was 0.0.

And the “Herbicidal rating CYPSE” value (CYPSE (Flatsedge) [4]; Rate 0.5000 kg/ha)?
The value was 0.0.

And the “herbicidal rating GALAP” value (GALAP (Galium); rate 0.0156 kg/ha)?
Its value is 3.0.

What about the “herbicidal rating GALAP” value (GALAP (Galium); rate 0.0313 kg/ha) of the same compound?
The value was 6.0.

What about the GALAP herbicidal rating (GALAP (Galium); rate 0.0625 kg/ha) of the same compound?
The GALAP herbicidal rating was 7.0.

What about the GALAP herbicidal rating (GALAP (Galium); rate 0.1250 kg/ha) of the same compound?
Its GALAP herbicidal rating is 9.0.

What about the “CYPIR herbicidal effect rating” value (CYPIR (Rice Flatsedge); 0.0313 kg/ha) of the same compound?
Its value is 0.0.

And the “CYPIR herbicidal effect rating” value (CYPIR (Rice Flatsedge); 0.0625 kg/ha)?
The value was 0.0.

And the “CYPIR herbicidal effect rating” value (CYPIR (Rice Flatsedge); 0.1250 kg/ha)?
Its value is 0.0.

What about the “CYPIR herbicidal effect rating” value (CYPIR (Rice Flatsedge); 0.2500 kg/ha) of the same compound?
Its value is 0.0.

And the “CYPIR herbicidal effect rating” value (CYPIR (Rice Flatsedge); 0.5000 kg/ha)?
Its value is 0.0.

And the ZEAMX rating (ZEAMX (Corn, Field) [5]; 0.0156 kg/ha)?
Its ZEAMX rating is 0.0.

And the ZEAMX rating (ZEAMX (Corn, Field) [5]; 0.0313 kg/ha)?
The ZEAMX rating was 0.0.

What about the ZEAMX rating (ZEAMX (Corn, Field) [5]; 0.0625 kg/ha) of the same compound?
The ZEAMX rating was 1.0.

What about the ZEAMX rating (ZEAMX (Corn, Field) [5]; 0.1250 kg/ha) of the same compound?
The ZEAMX rating was 2.0.

What about the ZEAMX rating (ZEAMX (Corn, Field) [5]; 0.2500 kg/ha) of the same compound?
Its ZEAMX rating is 6.0.

What about the ZEAMX rating (ZEAMX (Corn, Field) [5]; 0.5000 kg/ha) of the same compound?
The ZEAMX rating was 7.0.

What about the TRZAWR rating ([6]; 0.0156 kg/ha) of the same compound?
The TRZAWR rating was 0.0.

And the TRZAWR rating ([6]; 0.0313 kg/ha)?
Its TRZAWR rating is 0.0.

And the TRZAWR rating ([6]; 0.0625 kg/ha)?
The TRZAWR rating was 1.0.

What about the TRZAWR rating ([6]; 0.1250 kg/ha) of the same compound?
The TRZAWR rating was 1.0.

And the TRZAWR rating ([6]; 0.2500 kg/ha)?
Its TRZAWR rating is 4.0.

And the TRZAWR rating ([6]; 0.5000 kg/ha)?
Its TRZAWR rating is 5.0.

And the AMBEL rating (AMBEL (Ragweed, Common); 0.0156 kg/ha)?
The AMBEL rating was 0.0.

What about the AMBEL rating (AMBEL (Ragweed, Common); 0.0313 kg/ha) of the same compound?
The AMBEL rating was 0.0.

And the AMBEL rating (AMBEL (Ragweed, Common); 0.0625 kg/ha)?
The AMBEL rating was 4.0.

And the AMBEL rating (AMBEL (Ragweed, Common); 0.1250 kg/ha)?
The AMBEL rating was 9.0.

And the AMBEL rating (AMBEL (Ragweed, Common); 0.2500 kg/ha)?
Its AMBEL rating is 9.0.

What about the AMBEL rating (AMBEL (Ragweed, Common); 0.5000 kg/ha) of the same compound?
Its AMBEL rating is 9.0.

What about the IPOHE rating ([7]; 0.0156 kg/ha) of the same compound?
Its IPOHE rating is 0.0.

And the IPOHE rating ([7]; 0.0313 kg/ha)?
The IPOHE rating was 0.0.

And the IPOHE rating ([7]; 0.0625 kg/ha)?
Its IPOHE rating is 9.0.

What about the IPOHE rating ([7]; 0.1250 kg/ha) of the same compound?
The IPOHE rating was 9.0.

What about the IPOHE rating ([7]; 0.2500 kg/ha) of the same compound?
Its IPOHE rating is 9.0.

What about the IPOHE rating ([7]; 0.5000 kg/ha) of the same compound?
Its IPOHE rating is 9.0.

What about the ORYSAT rating (ORYSAT (Rice, Tebonnet); 0.0156 kg/ha) of the same compound?
Its ORYSAT rating is 0.0.

And the ORYSAT rating (ORYSAT (Rice, Tebonnet); 0.0313 kg/ha)?
Its ORYSAT rating is 0.0.

What about the ORYSAT rating (ORYSAT (Rice, Tebonnet); 0.0625 kg/ha) of the same compound?
The ORYSAT rating was 1.0.

And the ORYSAT rating (ORYSAT (Rice, Tebonnet); 0.1250 kg/ha)?
Its ORYSAT rating is 1.0.

And the ORYSAT rating (ORYSAT (Rice, Tebonnet); 0.2500 kg/ha)?
The ORYSAT rating was 4.0.

What about the ORYSAT rating (ORYSAT (Rice, Tebonnet); 0.5000 kg/ha) of the same compound?
The ORYSAT rating was 4.0.

And the “herbicidal rating CASOB” value (CASOB (Sicklepod); rate 0.0156 kg/ha)?
The value was 4.0.

What about the “herbicidal rating CASOB” value (CASOB (Sicklepod); rate 0.0313 kg/ha) of the same compound?
Its value is 7.0.

And the CASOB herbicidal rating (CASOB (Sicklepod); rate 0.0625 kg/ha)?
Its CASOB herbicidal rating is 8.0.

What about the CASOB herbicidal rating (CASOB (Sicklepod); rate 0.1250 kg/ha) of the same compound?
Its CASOB herbicidal rating is 9.0.

And the CHEAL rating ([8]; 0.0156 kg/ha)?
Its CHEAL rating is 9.0.

What about the CHEAL rating ([8]; 0.0313 kg/ha) of the same compound?
Its CHEAL rating is 9.0.

What about the CHEAL rating ([8]; 0.0625 kg/ha) of the same compound?
The CHEAL rating was 9.0.

What about the CHEAL rating ([8]; 0.1250 kg/ha) of the same compound?
Its CHEAL rating is 9.0.

And the CHEAL rating ([8]; 0.2500 kg/ha)?
Its CHEAL rating is 9.0.

And the CHEAL rating ([8]; 0.5000 kg/ha)?
The CHEAL rating was 9.0.

What about the “herbicidal rating ZEAMX” value (ZEAMX (Corn, Field) [9]; rate 0.0156 kg/ha) of the same compound?
The value was 5.0.

What about the “herbicidal rating ZEAMX” value (ZEAMX (Corn, Field) [9]; rate 0.0313 kg/ha) of the same compound?
Its value is 6.0.

And the ZEAMX herbicidal rating (ZEAMX (Corn, Field) [9]; rate 0.0625 kg/ha)?
The ZEAMX herbicidal rating was 7.5.

What about the ZEAMX herbicidal rating (ZEAMX (Corn, Field) [9]; rate 0.1250 kg/ha) of the same compound?
The ZEAMX herbicidal rating was 8.0.

Source: patent US20020137929A1, “1 - (3-heterocyclylphenyl) isothiourea, -isourea, -guanidine and -amidine herbicidal agents” (Intellectual Property Department, BASF Aktiengesellschaft, priority 1998, published 2002)
